Source: patent US7842324B2 (Senomyx, Inc., priority 2005, dated 2010)

Each compound was assayed against T1, hT1R2/hT1R3 sweet receptor expressed in HEK293 cell line (Homo sapiens, UniProt Q7RTX0+Q8TE23) (assay: In vitro hT1R2/hT1R3-HEK293 taste receptor activation assay (FLIPR)). Settings: Table A; read-out: SWEET EC50.
T1 construct: expressed in transfected cells; host or cells: HEK293 derivative stably expressing Gα15 and hT1R2/hT1R3, clone S-9
T1 sequence (Q8TE23 20-839): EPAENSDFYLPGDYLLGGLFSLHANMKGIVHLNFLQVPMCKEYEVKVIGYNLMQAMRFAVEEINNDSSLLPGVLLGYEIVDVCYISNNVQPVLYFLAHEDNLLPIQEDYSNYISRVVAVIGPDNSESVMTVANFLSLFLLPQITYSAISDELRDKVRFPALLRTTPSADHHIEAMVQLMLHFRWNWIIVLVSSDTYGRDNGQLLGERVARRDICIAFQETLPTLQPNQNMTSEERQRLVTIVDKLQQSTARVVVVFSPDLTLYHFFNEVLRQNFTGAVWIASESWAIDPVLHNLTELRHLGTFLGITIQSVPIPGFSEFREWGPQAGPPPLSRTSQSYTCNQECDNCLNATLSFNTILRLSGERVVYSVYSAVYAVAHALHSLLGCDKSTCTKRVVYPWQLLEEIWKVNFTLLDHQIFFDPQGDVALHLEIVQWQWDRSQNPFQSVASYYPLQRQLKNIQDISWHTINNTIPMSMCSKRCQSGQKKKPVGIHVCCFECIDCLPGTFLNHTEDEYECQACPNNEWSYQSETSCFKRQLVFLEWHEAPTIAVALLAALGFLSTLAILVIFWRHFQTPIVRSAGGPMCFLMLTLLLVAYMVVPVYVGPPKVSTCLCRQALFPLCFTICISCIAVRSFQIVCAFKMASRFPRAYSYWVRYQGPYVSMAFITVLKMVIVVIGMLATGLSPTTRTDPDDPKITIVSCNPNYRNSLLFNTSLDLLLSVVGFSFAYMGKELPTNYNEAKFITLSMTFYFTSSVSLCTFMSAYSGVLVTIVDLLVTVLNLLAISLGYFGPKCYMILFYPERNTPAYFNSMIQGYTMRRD
T1 sequence (Q7RTX0 21-852): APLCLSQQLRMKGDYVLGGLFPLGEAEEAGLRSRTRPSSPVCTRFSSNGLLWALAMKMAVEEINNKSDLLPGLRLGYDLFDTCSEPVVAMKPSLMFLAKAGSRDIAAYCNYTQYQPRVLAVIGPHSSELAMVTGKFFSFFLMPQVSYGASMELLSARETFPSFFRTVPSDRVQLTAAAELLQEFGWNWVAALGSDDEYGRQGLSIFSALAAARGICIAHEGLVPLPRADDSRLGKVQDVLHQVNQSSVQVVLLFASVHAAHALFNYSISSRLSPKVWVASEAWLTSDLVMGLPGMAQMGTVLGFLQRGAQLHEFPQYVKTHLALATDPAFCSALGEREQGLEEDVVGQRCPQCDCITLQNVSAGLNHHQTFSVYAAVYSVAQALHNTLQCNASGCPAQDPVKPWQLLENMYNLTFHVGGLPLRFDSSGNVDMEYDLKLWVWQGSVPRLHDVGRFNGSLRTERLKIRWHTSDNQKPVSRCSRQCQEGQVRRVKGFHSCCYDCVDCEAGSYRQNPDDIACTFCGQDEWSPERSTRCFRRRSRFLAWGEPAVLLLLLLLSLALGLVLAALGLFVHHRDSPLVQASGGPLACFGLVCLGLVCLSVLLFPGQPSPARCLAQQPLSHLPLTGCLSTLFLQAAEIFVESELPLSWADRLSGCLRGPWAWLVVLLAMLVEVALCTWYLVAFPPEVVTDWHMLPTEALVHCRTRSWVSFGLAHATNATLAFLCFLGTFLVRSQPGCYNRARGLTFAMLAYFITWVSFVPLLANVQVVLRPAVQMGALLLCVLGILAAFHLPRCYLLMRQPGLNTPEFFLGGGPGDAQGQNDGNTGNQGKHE
Type: cell-based
Procedure: An HEK293 cell line derivative (Chandrashekar et al., Cell (2000) 100:703-711) that stably expresses Gα15 and hT1R2/hT1R3 (Li et al., Proc Natl Acad Sci USA (2002) 99:4692-4696), see also PCT Publication No. WO 03/001876 A2) was used to identify compounds with sweet taste enhancing properties.
Compounds covered in this document were initially selected based on their activity on the hT1R2/hT1R3-HEK293-Gα15 cell line (Li et al. vide supra). Activity was determined using an automated fluorometric imaging assay on a FLIPR instrument ([…], Molecular Devices, Sunnyvale, Calif.) (designated FLIPR assay). Cells from one clone (designated S-9 cells) were seeded into 384-well plates (at approximately 50,000 cells per well) in a medium containing DMEM Low Glucose (Invitrogen, Carlsbad, Calif.), 10% dialyzed fetal bovine serum (Invitrogen, Carlsbad, Calif.), 100 Units/ml Penicillin G, and 100 μg/ml Streptomycin (Invitrogen, Carlsbad, Calif.) (Li et al. vide supra) see also PCT Publication No. WO 03/001876 A2). S-9 cells were grown for 24 hours at 37° C. S-9 cells were then loaded with the calcium dye Fluo-3AM (Molecular Probes, Eugene, Oreg.), 4 μM in a phosphate buffered saline (D-PBS) (Invitrogen, Carlsbad, Calif.), for 1 hour at room temperature. After replacement with 25 μl D-PBS, stimulation was performed in the FLIPR instrument and at room temperature by the addition of 25 μl D-PBS supplemented with different stimuli at concentrations corresponding to twice the desired final level. Receptor activity was quantified by determining the maximal fluorescence increases (using a 480 nm excitation and 535 nm emission) after normalization to basal fluorescence intensity measured before stimulation.
For dose-responses analysis, stimuli were presented in duplicates at 10 different concentrations ranging from 60 nM to 30 μM. Activities were normalized to the response obtained with 400 mM D-fructose, a concentration that elicits maximum receptor response. EC50s were determined using a non-linear regression algorithm (using a Senomyx, Inc. software), where the Hill slope, bottom asymptotes and top asymptotes were allow to vary. Identical results were obtained when analyzing the dose-response data using commercially available software for non-linear regression analysis such as GraphPad PRISM (San Diego, Calif.).

| Compound | EC50 |
| --- | --- |
| CC(C(=O)NC1CC1)c1ccc(-c2ccccc2)c(F)c1 (stereo not shown) [Compound A1] | 3.52 µM |
| CCC(C)NC(=O)[C@@H](C)c1ccc(-c2ccccc2)c(F)c1 (stereo partly shown) [Compound A2] | 2.38 µM |
| CC(C)CNC(=O)C(C)(C)c1ccc(-c2ccccc2)c(F)c1 [Compound A3] | 1.71 µM |
| COCC(C)NC(=O)C(C)(C)c1ccc(-c2ccccc2)c(F)c1 (stereo not shown) [Compound A4] | 3.19 µM |
| CC(C)CNC(=O)C(C)c1ccc(-c2ccccc2)cc1 (stereo not shown) [Compound A5] | 4.26 µM |
| CC(C)CNC(=O)C(C)c1ccc(-c2cccc(F)c2)cc1 (stereo not shown) [Compound A6] | 1.8 µM |
| COc1cccc(-c2ccc(C(C)C(=O)NCC(C)C)cc2)c1 (stereo not shown) [Compound A7] | 5.58 µM |
| CC(C)CNC(=O)Cc1ccc(-c2ccccc2)c(F)c1 [Compound A8] | 7.5 µM |
| CC(C)CNC(=O)C(C)(C)c1ccc(-c2ccncc2)cc1 [Compound A9] | 1.66 µM |
| CC(C)CNC(=O)C(C)(C)c1ccc(-c2ccc3[nH]ccc3c2)cc1 [Compound A10] | 3.36 µM |
| CC(C)CNC(=O)C(C)(C)c1ccc(-c2cncnc2)cc1 [Compound A11] | 2.13 µM |
| CCC(COC)NC(=O)C(C)c1ccc(-c2ccccc2)c(F)c1 (stereo not shown) [Compound A12] | 4.5 µM |
| CCc1ccccc1-c1ccc(C(C)(C)C(=O)NCC(C)C)cc1 [Compound A13] | 7 µM |
| CSc1ccccc1-c1ccc(C(C)(C)C(=O)NCC(C)C)cc1 [Compound A14] | 9 µM |
| COC(=O)c1ccccc1-c1ccc(C(C)(C)C(=O)NCC(C)C)cc1 [Compound A15] | 4 µM |
| CC(C)CNC(=O)C(C)(C)c1ccc(-c2cccc(C(C)C)c2)cc1 [Compound A16] | 6 µM |

| Compound | EC50 |
| --- | --- |
| CCCOc1cccc(-c2ccc(C(C)(C)C(=O)NCC(C)C)cc2)c1 [Compound A17] | 5.6 µM |
| COc1cccc(-c2ccc(C(C)(C)C(=O)NCC(C)C)cc2)c1OC [Compound A18] | 6.6 µM |
| COc1ccc(-c2ccc(C(C)(C)C(=O)NCC(C)C)cc2)c(OC)c1 [Compound A19] | 7.1 µM |
| CC(NC(=O)C(C)(C)c1ccc(-c2cncc(C#N)c2)cc1)c1ccccc1 (stereo not shown) [Compound A20] | 0.71 µM |
| CC(C)CCNC(=O)C(C)(C)c1ccc(-c2cncc(C#N)c2)cc1 [Compound A21] | 0.94 µM |
| CC(C)NC(=O)C(C)(C)c1ccc(-c2cncc(C#N)c2)cc1 [Compound A22] | 0.94 µM |
| COCOCc1c(C=O)cccc1-c1ccc(C(C)(C)C(=O)NCC(C)C)cc1 [Compound A23] | 1.1 µM |
| CC(=O)c1ccccc1-c1ccc(C(C)(C)C(=O)NCC(C)C)cc1 [Compound A24] | 1.17 µM |
| CC(C)CNC(=O)C(C)(C)c1ccc(-c2cnc3ccccn23)cc1 [Compound A25] | 1.23 µM |
| CC(C)CNC(=O)C(C)(C)c1ccc(-c2cccc3[nH]ccc23)cc1 [Compound A26] | 2.02 µM |
| CC(C)(C(=O)NC[C@@H]1CCCO1)c1ccc(-c2cncc(C#N)c2)cc1 [Compound A27] | 2.06 µM |
| CC(C)(C(=O)N[C@@H](O)c1ccccc1)c1ccc(-c2cncc(C#N)c2)cc1 [Compound A28] | 2.06 µM |
| CCCNC(=O)C(C)(C)c1ccc(-c2cncc(COC)c2)cc1 [Compound A29] | 2.91 µM |
| COCc1cccc(-c2ccc(C(C)(C)C(=O)NCC(C)C)nc2)c1 [Compound A30] | 3.05 µM |
| COCc1cccc(-c2ccc(C(C)(C)C(=O)NCC(C)C)cn2)c1 [Compound A31] | 3.79 µM |
| CC(C)CNC(=O)C(C)(C)c1ccc(-c2cscn2)cc1 [Compound A32] | 5.4 µM |

Same assay, conditions: read-out: EC50 for activation of a hT1R2/hT1R3 sweet receptor expressed in HEK293 cell line

| Compound | EC50 |
| --- | --- |
| CC(C)CNC(=O)C(C)(C)c1nc(-c2ccccc2)no1 [Compound 41, N-isobutyl-2-methyl-2-(3-phenyl-1,2,4-oxadiazol-5-yl)propanamide] | 6.53 µM |
| CC(C)CNC(=O)C(C)(C)c1ccc(-c2cncc(C#N)c2)cn1 [Compound 42, 2-(5′-cyano-3,3′-bipyridin-6-yl)-N-isobutyl-2-methylpropanamide] | 10.6 µM |
| CC(C)[C@@H](C)NC(=O)C(C)(C)c1ccc(-c2cncnc2)cc1 [Compound 44, (R)-2-methyl-N-(3-methylbutan-2-yl)-2-(4-(pyrimidin-5-yl)phenyl)propanamide] | 0.65 µM |
| COC(C)CNC(=O)C(C)(C)c1ccc(-c2cncc(C#N)n2)cc1 (stereo not shown) [Compound 45, 2-(4-(6-cyanopyrazin-2-yl)phenyl)-N-(2-methoxypropyl)-2-methylpropanamide] | 0.92 µM |
| CC(C)(C(=O)NCC(O)c1ccco1)c1ccc(-c2cncc(C#N)c2)cc1 (stereo not shown) [Compound 46, 2-(4-(5-cyanopyridin-3-yl)phenyl)-N-(2-(furan-2-yl)-2-hydroxyethyl)-2-methylpropanamide] | 1.19 µM |
| CC[C@@H](C)NC(=O)C(C)(C)c1ccc(-c2cncc(C#N)n2)cc1 [Compound 47, (R)-N-sec-butyl-2-(4-(6-cyanopyrazin-2-yl)phenyl)-2-methylpropanamide] | 0.14 µM |
| CC(NC(=O)C(C)(C)c1ccc(-c2cncc(C#N)n2)cc1)c1ccco1 (stereo not shown) [Compound 48, 2-(4-(6-cyanopyrazin-2-yl)phenyl)-N-(1-(furan-2-yl)ethyl)-2-methylpropanamide] | 0.19 µM |
| CC(C)(C(=O)NCc1ccco1)c1ccc(-c2cncc(C#N)n2)cc1 [Compound 49, 2-(4-(6-cyanopyrazin-2-yl)phenyl)-N-(furan-2-ylmethyl)-2-methylpropanamide] | 0.47 µM |
| Cc1cc(C(C)(C)C(=O)NCC(C)C)ccc1-c1ccccc1 [Compound 50, N-isobutyl-2-methyl-2-(2-methylbiphenyl-4-yl)propanamide] | 1.42 µM |
| CC[C@@H](CO)NC(=O)C(C)(C)c1ccc(-c2cncc(C#N)n2)cc1 [Compound 51, (S)-2-(4-(6-cyanopyrazin-2-yl)phenyl)-N-(1-hydroxybutan-2-yl)-2-methylpropanamide] | 1.03 µM |
| CCC(CC)NC(=O)C(C)(C)c1ccc(-c2cncnc2)cc1 [Compound 52, 2-methyl-N-(pentan-3-yl)-2-(4-(pyrimidin-5-yl)phenyl)propanamide] | 0.38 µM |
